Source: US11541028B2, “Peptide pharmaceuticals for treatment of NASH and other disorders” (Mederis Diabetes LLC, priority 2018, dated 2023)
Where two headings read alike, the source gives them in different places. Numbered stars: 1 amine (or outer) side, 2 acyl side, 3 side chain; on linkers, the order of the positions; unused ones are H or OH. Bridge positions count the residues as written; N and C are the ends. Square brackets hold non-standard residues; d marks the D form. Side chains are listed from the residue outwards. Peptide text beside a SMILES is read from it. * marks the point of attachment. Melibiouronoyl(1β-O-dodecyl) = CCCCCCCCCCCCO[C@@H]1O[C@H](CO[C@H]2O[C@H](C(=O)*)[C@H](O)[C@H](O)[C@H]2O)[C@@H](O)[C@H](O)[C@H]1O; X2 = CCCCCCCCCCCCCCO[C@@H]1O[C@H](CO[C@H]2O[C@H](C(=O)*)[C@H](O)[C@H](O)[C@H]2O)[C@@H](O)[C@H](O)[C@H]1O; βGlcA(1-O-hexadecyl) = CCCCCCCCCCCCCCCCO[C@@H]1O[C@H](C(=O)*)[C@@H](O)[C@H](O)[C@H]1O; γGlu = O=C(O)[C@H](CCC(=O)[*:2])N[*:1]; Aib = CC(C)(N)C(=O)O

How the values were obtained:
human glucagon receptor = biological target: T1, human glucagon receptor (Homo sapiens, UniProt P47871); test: DiscoveRx LeadHunter cellular assay, cAMP stimulation, glucagon receptor in CHO cells; format: cell-based
T1 construct: host or cells: CHO cells

human GLP-1 receptor = biological target: T2, human GLP-1 receptor (Homo sapiens, UniProt P43220); test: DiscoveRx LeadHunter cellular assay, cAMP stimulation, GLP-1 receptor in CHO cells; format: cell-based; conditions: human GLP-1 receptor in CHO cells (DiscoveRx); read-out: EC50 cAMP GLP-1 R
T2 construct: host or cells: CHO cells
T2 sequence (P43220 24-463): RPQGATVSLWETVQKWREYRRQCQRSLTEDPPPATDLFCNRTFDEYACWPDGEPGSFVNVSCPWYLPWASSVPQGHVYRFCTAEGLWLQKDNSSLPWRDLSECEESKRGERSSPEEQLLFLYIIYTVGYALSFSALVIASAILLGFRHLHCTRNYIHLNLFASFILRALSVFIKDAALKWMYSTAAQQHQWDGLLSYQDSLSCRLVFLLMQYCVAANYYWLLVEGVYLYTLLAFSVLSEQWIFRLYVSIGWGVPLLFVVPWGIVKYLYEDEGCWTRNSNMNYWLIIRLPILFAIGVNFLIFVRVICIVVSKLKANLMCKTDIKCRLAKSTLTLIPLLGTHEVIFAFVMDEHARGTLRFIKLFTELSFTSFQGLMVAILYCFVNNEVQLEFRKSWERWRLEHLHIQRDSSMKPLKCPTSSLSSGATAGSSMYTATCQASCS

T1 sequence (P47871 26-477): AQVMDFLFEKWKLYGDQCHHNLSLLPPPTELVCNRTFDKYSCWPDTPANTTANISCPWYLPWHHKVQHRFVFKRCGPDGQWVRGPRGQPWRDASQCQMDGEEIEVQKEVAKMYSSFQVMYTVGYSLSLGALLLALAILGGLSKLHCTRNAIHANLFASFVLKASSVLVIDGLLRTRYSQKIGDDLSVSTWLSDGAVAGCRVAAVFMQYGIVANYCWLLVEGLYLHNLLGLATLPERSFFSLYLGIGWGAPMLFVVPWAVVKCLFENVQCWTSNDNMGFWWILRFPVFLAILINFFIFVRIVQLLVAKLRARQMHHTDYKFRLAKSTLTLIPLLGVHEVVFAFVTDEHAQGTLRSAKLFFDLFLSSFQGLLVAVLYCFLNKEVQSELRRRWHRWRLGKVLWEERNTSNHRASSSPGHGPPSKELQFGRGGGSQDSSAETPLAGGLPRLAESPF

Row | SMILES | EC50 (human glucagon receptor) [nM] | EC50 (human GLP-1 receptor) [nM] | EC50 (human glucagon receptor; read-out: EC50 cAMP Glucagon R, human glucagon receptor in CHO cells (DiscoveRx)) [nM]
1 | CCCCCCCCCCCCCCO[C@@H]1O[C@H](CO[C@H]2O[C@H](C(=O)NCCCC[C@H](NC(=O)[C@H](C)NC(=O)[C@H](C)NC(=O)[C@H](CCC(N)=O)NC(=O)[C@H](CO)NC(=O)[C@H](CC(=O)O)NC(=O)[C@@H]3CCCCNC(=O)CC[C@H](NC(=O)[C@H](CC(=O)O)NC(=O)[C@H](CO)NC(=O)[C@@H](NC(=O)[C@H](Cc4ccccc4)NC(=O)[C@@H](NC(=O)CNC(=O)[C@H](CCC(N)=O)NC(=O)C(C)(C)NC(=O)[C@@H](N)Cc4c[nH]cn4)[C@@H](C)O)[C@@H](C)O)C(=O)N[C@@H](CO)C(=O)N[C@@H](CCCCN)C(=O)N[C@@H](Cc4ccc(O)cc4)C(=O)N3)C(=O)N[C@@H](CCC(=O)O)C(=O)N[C@@H](Cc3ccccc3)C(=O)N[C@H](C(=O)N[C@@H](CCC(N)=O)C(=O)N[C@@H](Cc3c[nH]c4ccccc34)C(=O)N[C@@H](CC(C)C)C(=O)N[C@@H](CC(C)C)C(=O)N[C@@H](CCC(N)=O)C(=O)N[C@H](C(N)=O)[C@@H](C)O)[C@@H](C)CC)[C@H](O)[C@H](O)[C@H]2O)[C@@H](O)[C@H](O)[C@H]1O [EU-A1729] (H-H[Aib]QGTFTSDESKYKDSQAAK(X2)EFIQWLLQT-NH2; lactam 10-14) | 0.558 | 0.006 | –
2 | CCCCCCCCCCCCCCO[C@@H]1O[C@H](C(=O)N[C@@H](CCC(=O)NCCCC[C@H](NC(=O)[C@@H](NC(=O)[C@H](Cc2ccccc2)NC(=O)[C@H](CCC(=O)O)NC(=O)[C@@H]2CCCCNC(=O)CC[C@H](NC(=O)[C@H](CC(=O)O)NC(=O)[C@H](CC(C)C)NC(=O)[C@H](Cc3ccc(O)cc3)NC(=O)[C@H](CCCCN)NC(=O)[C@H](CO)NC(=O)[C@H](Cc3ccc(O)cc3)NC(=O)[C@H](CC(=O)O)NC(=O)[C@H](CO)NC(=O)[C@@H](NC(=O)[C@H](Cc3ccccc3)NC(=O)[C@@H](NC(=O)CNC(=O)[C@H](CCC(N)=O)NC(=O)C(C)(C)NC(=O)[C@@H](N)Cc3c[nH]cn3)[C@@H](C)O)[C@@H](C)O)C(=O)N[C@@H](CCC(N)=O)C(=O)N[C@@H](C)C(=O)N[C@@H](C)C(=O)N2)[C@@H](C)CC)C(=O)N[C@@H](Cc2c[nH]c3ccccc23)C(=O)N[C@@H](CC(C)C)C(=O)N[C@@H](CC(C)C)C(=O)N[C@@H](CCC(N)=O)C(=O)N[C@H](C(N)=O)[C@@H](C)O)C(=O)O)[C@@H](O)[C@H](O)[C@H]1O [EU-A1718] | – | 0.043 | 0.097
3 | CCCCCCCCCCCCCCO[C@@H]1O[C@H](CO[C@H]2O[C@H](C(=O)N[C@@H](CCC(=O)N[C@@H](CCC(=O)NCCCC[C@H](NC(=O)[C@@H](NC(=O)[C@H](Cc3ccccc3)NC(=O)[C@H](CCC(=O)O)NC(=O)[C@@H]3CCCCNC(=O)CC[C@H](NC(=O)[C@H](CC(=O)O)NC(=O)[C@H](CC(C)C)NC(=O)[C@H](Cc4ccc(O)cc4)NC(=O)[C@H](CCCCN)NC(=O)[C@H](CO)NC(=O)[C@H](Cc4ccc(O)cc4)NC(=O)[C@H](CC(=O)O)NC(=O)[C@H](CO)NC(=O)[C@@H](NC(=O)[C@H](Cc4ccccc4)NC(=O)[C@@H](NC(=O)CNC(=O)[C@H](CCC(N)=O)NC(=O)C(C)(C)NC(=O)[C@@H](N)Cc4c[nH]cn4)[C@@H](C)O)[C@@H](C)O)C(=O)N[C@@H](CCC(N)=O)C(=O)N[C@@H](C)C(=O)N[C@@H](C)C(=O)N3)[C@@H](C)CC)C(=O)N[C@@H](Cc3c[nH]c4ccccc34)C(=O)N[C@@H](CC(C)C)C(=O)N[C@@H](CC(C)C)C(=O)N[C@@H](CCC(N)=O)C(=O)N[C@H](C(N)=O)[C@@H](C)O)C(=O)O)C(=O)O)[C@H](O)[C@H](O)[C@H]2O)[C@@H](O)[C@H](O)[C@H]1O [EU-A1627] | 0.705 | 0.304 | –
4 | CCCCCCCCCCCCO[C@@H]1O[C@H](CO[C@H]2O[C@H](C(=O)NCCCC[C@H](N)C(=O)NCCCC[C@H](NC(=O)[C@@H](NC(=O)[C@H](Cc3ccccc3)NC(=O)[C@H](CCC(=O)O)NC(=O)[C@@H]3CCCCNC(=O)CC[C@H](NC(=O)[C@H](CC(=O)O)NC(=O)[C@H](CC(C)C)NC(=O)[C@H](Cc4ccc(O)cc4)NC(=O)[C@H](CCCCN)NC(=O)[C@H](CO)NC(=O)[C@H](Cc4ccc(O)cc4)NC(=O)[C@H](CC(=O)O)NC(=O)[C@H](CO)NC(=O)[C@@H](NC(=O)[C@H](Cc4ccccc4)NC(=O)[C@@H](NC(=O)CNC(=O)[C@H](CCC(N)=O)NC(=O)C(C)(C)NC(=O)[C@@H](N)Cc4c[nH]cn4)[C@@H](C)O)[C@@H](C)O)C(=O)N[C@@H](CCC(N)=O)C(=O)N[C@@H](C)C(=O)N[C@@H](C)C(=O)N3)[C@@H](C)CC)C(=O)N[C@@H](Cc3c[nH]c4ccccc34)C(=O)N[C@@H](CC(C)C)C(=O)N[C@@H](CC(C)C)C(=O)N[C@@H](CCC(N)=O)C(=O)N[C@H](C(=O)O)[C@@H](C)O)[C@H](O)[C@H](O)[C@H]2O)[C@@H](O)[C@H](O)[C@H]1O [EU-A1611] | 0.16 | 0.015 | –

The remaining compounds from weak to strong by EC50 (human GLP-1 receptor), led by results:

Row | EC50 (human glucagon receptor) [nM] | EC50 (human GLP-1 receptor) [nM] | EC50 (human glucagon receptor; read-out: EC50 cAMP Glucagon R, human glucagon receptor in CHO cells (DiscoveRx)) [nM] | SMILES
5 | 10 | 0.232 | – | CCCCCCCCCCCCCCCCO[C@@H]1O[C@H](C(=O)N[C@@H](CCC(=O)NCCCC[C@H](NC(=O)[C@H](C)NC(=O)[C@H](C)NC(=O)[C@H](CCC(N)=O)NC(=O)[C@@H]2CCCCNC(=O)CC[C@H](NC(=O)[C@H](CO)NC(=O)[C@H](Cc3ccc(O)cc3)NC(=O)[C@H](CC(=O)O)NC(=O)[C@H](CO)NC(=O)[C@@H](NC(=O)[C@H](Cc3ccccc3)NC(=O)[C@@H](NC(=O)CNC(=O)[C@H](CCC(N)=O)NC(=O)C(C)(C)NC(=O)[C@@H](N)Cc3c[nH]cn3)[C@@H](C)O)[C@@H](C)O)C(=O)N[C@@H](Cc3ccc(O)cc3)C(=O)N[C@@H](CC(C)C)C(=O)N[C@@H](CC(=O)O)C(=O)N2)C(=O)N[C@@H](CCC(=O)O)C(=O)N[C@@H](Cc2ccccc2)C(=O)N[C@H](C(=O)N[C@@H](CCC(N)=O)C(=O)N[C@@H](Cc2c[nH]c3ccccc23)C(=O)N[C@@H](CC(C)C)C(=O)N[C@@H](CC(C)C)C(=O)N[C@@H](CCC(N)=O)C(=O)N[C@H](C(N)=O)[C@@H](C)O)[C@@H](C)CC)C(=O)O)[C@@H](O)[C@H](O)[C@H]1O [EU-A1788] (H-H[Aib]QGTFTSDYSEYLDKQAAK([γGlu-βGlcA(1-O-hexadecyl)])EFIQWLLQT-NH2; lactam 12-16; N-terminus assumed)
6 | 0.286 | 0.073 | – | CCCCCCCCCCCCO[C@@H]1O[C@H](CO[C@H]2O[C@H](C(=O)NCCCC[C@@H]3NC(=O)[C@@H](NC(=O)[C@H](CC(=O)O)NC(=O)[C@H](CC(C)C)NC(=O)[C@H](Cc4ccc(O)cc4)NC(=O)[C@H](CCCCN)NC(=O)[C@H](CO)NC(=O)[C@H](Cc4ccc(O)cc4)NC(=O)[C@H](CC(=O)O)NC(=O)[C@H](CO)NC(=O)[C@@H](NC(=O)[C@H](Cc4ccccc4)NC(=O)[C@@H](NC(=O)CNC(=O)[C@H](CCC(N)=O)NC(=O)C(C)(C)NC(=O)[C@@H](N)Cc4c[nH]cn4)[C@@H](C)O)[C@@H](C)O)CCC(=O)NCCCC[C@@H](C(=O)N[C@@H](CCC(=O)O)C(=O)N[C@@H](Cc4ccccc4)C(=O)N[C@H](C(=O)N[C@@H](CCC(=O)O)C(=O)N[C@@H](Cc4c[nH]c5ccccc45)C(=O)N[C@@H](CC(C)C)C(=O)N[C@@H](CC(C)C)C(=O)N[C@@H](CCC(N)=O)C(=O)N[C@H](C(N)=O)[C@@H](C)O)[C@@H](C)CC)NC(=O)[C@H](C)NC(=O)[C@H](C)NC3=O)[C@H](O)[C@H](O)[C@H]2O)[C@@H](O)[C@H](O)[C@H]1O [EU-A1591] (H-H[Aib]QGTFTSDYSKYLDEK(Melibiouronoyl(1β-O-dodecyl))AAKEFIEWLLQT-NH2; lactam 16-20; N-terminus assumed)
7 | 0.058 | 0.017 | – | CCCCCCCCCCCCO[C@@H]1O[C@H](CO[C@H]2O[C@H](C(=O)N[C@@H](CCC(=O)NCCCC[C@H](NC(=O)[C@@H](NC(=O)[C@H](Cc3ccccc3)NC(=O)[C@H](CCC(=O)O)NC(=O)[C@@H]3CCCCNC(=O)CC[C@H](NC(=O)[C@H](CC(=O)O)NC(=O)[C@H](CC(C)C)NC(=O)[C@H](Cc4ccc(O)cc4)NC(=O)[C@H](CCCCN)NC(=O)[C@H](CO)NC(=O)[C@H](Cc4ccc(O)cc4)NC(=O)[C@H](CC(=O)O)NC(=O)[C@H](CO)NC(=O)[C@@H](NC(=O)[C@H](Cc4ccccc4)NC(=O)[C@@H](NC(=O)CNC(=O)[C@H](CCC(N)=O)NC(=O)C(C)(C)NC(=O)[C@@H](N)Cc4c[nH]cn4)[C@@H](C)O)[C@@H](C)O)C(=O)N[C@@H](CCC(N)=O)C(=O)N[C@@H](C)C(=O)N[C@@H](C)C(=O)N3)[C@@H](C)CC)C(=O)N[C@@H](Cc3c[nH]c4ccccc34)C(=O)N[C@@H](CC(C)C)C(=O)N[C@@H](CC(C)C)C(=O)N[C@@H](CCC(N)=O)C(=O)N[C@H](C(N)=O)[C@@H](C)O)C(=O)O)[C@H](O)[C@H](O)[C@H]2O)[C@@H](O)[C@H](O)[C@H]1O [EU-A1606]
8 | 0.355 | 0.008 | – | CCCCCCCCCCCCCCCCO[C@@H]1O[C@H](CO[C@H]2O[C@H](C(=O)NCCCC[C@H](NC(=O)[C@@H](NC(=O)[C@H](Cc3ccccc3)NC(=O)[C@H](CCC(=O)O)NC(=O)[C@@H]3CCCCNC(=O)CC[C@H](NC(=O)[C@H](CC(=O)O)NC(=O)[C@H](CC(C)C)NC(=O)[C@H](Cc4ccc(O)cc4)NC(=O)[C@H](CCCCN)NC(=O)[C@H](CO)NC(=O)[C@H](Cc4ccc(O)cc4)NC(=O)[C@H](CC(=O)O)NC(=O)[C@H](CO)NC(=O)[C@@H](NC(=O)[C@H](Cc4ccccc4)NC(=O)[C@@H](NC(=O)CNC(=O)[C@H](CCC(N)=O)NC(=O)C(C)(C)NC(=O)[C@@H](N)Cc4c[nH]cn4)[C@@H](C)O)[C@@H](C)O)C(=O)N[C@@H](CCC(N)=O)C(=O)N[C@@H](C)C(=O)N[C@@H](C)C(=O)N3)[C@@H](C)CC)C(=O)N[C@@H](Cc3c[nH]c4ccccc34)C(=O)N[C@@H](CC(C)C)C(=O)N[C@@H](CC(C)C)C(=O)N[C@@H](CCC(N)=O)C(=O)N[C@H](C(=O)O)[C@@H](C)O)[C@H](O)[C@H](O)[C@H]2O)[C@@H](O)[C@H](O)[C@H]1O [EU-A1578]
